This note sets out measurements from ChEMBL document CHEMBL5726104, “4,6-disubstituted aminopyrimidine derivatives have anti-HIV activity” (2017).

For the test, the target named is Cyclin-dependent kinase 9 (Homo sapiens, UniProt P50750). As to the kind of experiment: Fluorescent Polarization Assay: The activity of the compounds described in the present invention can be determined by measuring the phosphorylation of a fluorescently-labeled peptide by human CDK9/CyclinT kinase complex by fluorescent polarization using a commercially available IMAP Screening Express Assay Kit (Molecular devices).Test compounds were diluted in 100% DMSO to 5 mM stock concentration, then further dilutions were made in H2O or 100% DMSO to desirable concentrations. Each reaction consisted of 5 nM enzyme: CDK9/CyclinT (Proqinase cat#0371-0345-1), 400 nM TAMRA-Rbtide (synthetic 15-mer peptide derived from human retinoblastoma tumor suppressor protein labeled with TAMRA dye, Genecust Europe), 12 μM ATP (=Kmapp, Sigma-Aldrich) and kinase buffer: 20 mM MOPS pH 7 (Sigma-Aldrich), 1 mM DTT (Sigma-Aldrich), 10 mM MgCl2 (Sigma-Aldrich), 0.01% Tween 20 (Sigma-Aldrich).For each reaction, 4 or 6 μl containing TAMRA-Rbtide, ATP and kianse buffer were combined with 2 μl diluted compound in H2O or 0.028 μl compound in 100% DMSO. The kinase reaction was started by the addition of 2 μl diluted enzyme.
Chain of Cyclin-dependent kinase 9 (P50750 whole entry): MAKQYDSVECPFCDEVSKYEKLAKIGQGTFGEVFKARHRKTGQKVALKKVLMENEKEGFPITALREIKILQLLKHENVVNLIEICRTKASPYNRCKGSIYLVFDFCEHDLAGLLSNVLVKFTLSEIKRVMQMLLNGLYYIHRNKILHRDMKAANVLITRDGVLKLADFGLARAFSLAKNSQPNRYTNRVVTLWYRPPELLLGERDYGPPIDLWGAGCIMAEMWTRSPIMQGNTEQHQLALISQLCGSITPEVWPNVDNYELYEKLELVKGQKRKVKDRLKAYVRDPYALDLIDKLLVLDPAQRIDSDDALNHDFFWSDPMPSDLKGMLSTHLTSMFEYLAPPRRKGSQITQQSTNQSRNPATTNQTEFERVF
Turning to `COc1ccccc1-c1cc(Nc2ccc(N3CCN(C)CC3)c(CO)c2)ncn1`, the IC50 is under 0.1 µM. Then `COc1ccc(Nc2cc(-c3ccccc3OC)ncn2)cc1NS(C)(=O)=O`, with under 0.1 µM.

For the compound `COc1ccc(Nc2cc(-c3ccccc3OCc3ccccc3)ncn2)cc1[N+](=O)[O-]`, the IC50 was under 10 µM. Then `COc1cccc(-c2cc(Nc3ccc(OC)c([N+](=O)[O-])c3)ncn2)c1`, with over 10 µM.
